Data published in patent US8987275B2, “Indazole compounds and their uses” (Dana-Farber Cancer Institute, Inc., priority 2010, dated 2015).

Tests used:
Format in all cases: cell-based
[1] = target: T1, Tel-Alk (Homo sapiens, UniProt Q9UM73); experiment: IC50 of compounds against kinase target Tel-Alk (Table I)
T1 construct: TEL (ETV6); N-terminal fusion partner; human ETV6 would be P41212; the other entry of the earlier key: ETV6 (P41212, Transcription factor ETV6)
Method: (§1) All compounds are initially dissolved in DMSO to make 10 mM stock solutions, and then are serially diluted to obtain final concentrations for in vitro experiments.
(§2) All cell lines are cultured with 5% CO2 at 37° C. in RPMI (Mediatech, Inc., Herndon, Va.) with 10% fetal calf serum (FCS) and supplemented with 1% L-glutamine. Parental Ba/F3 cells are similarly cultured with 15% WEHI-conditioned medium as a source of IL-3. Transfected cell lines are cultured in media supplemented with 1 mg/ml G418.

[2] = target: T2, BCR-Abl T315I (Homo sapiens, UniProt P00519, T315I); experiment: IC50 of compounds against kinase target T315I (Table I); conditions: read-out: IC50 T3151
T2 construct: BCR (N-terminal fusion partner of BCR-ABL); human BCR would be P11274; expressed in transfected cells; host or cells: Ba/F3 (or 32D) murine hematopoietic cells transfected with BCR-ABL T315I in pCI-neo; the other entry of the earlier key: BCR (P11274, Breakpoint cluster region protein)
Method: as §1
(§3) Ba/F3.p210 cells are obtained by transfecting the IL-3-dependent marine hematopoietic Ba/F3 cell line with a pGD vector containing p210BCR-ABL (B2A2) cDNA (Daley and Baltimore, 1988; Sattler et al., 1996; Okuda et al., 1996). Murine hematopoietic 32D cells are transduced with retrovirus to express p210 Bcr-ABL (32D.p210 cells) (Matulonis et al., 1993); the 32D-T315I cell line is transfected by electroporation with the imatinib resistant BCR-ABL construct (pCI-neo Mammalian Expression Vector; Promega (#E1841) harboring the point mutation T315I (Weisberg et al., 2005). Ba/F3 cells are stably transfected by electroporation with imatinib-resistant BCR-ABL constructs (pCI-neo Mammalian Expression Vector; Promega (#E1841) harboring the point mutations T315I, F317L, F486S, and M351T; transfectants are selected for neomycin resistance and IL-3-independent growth (Weisberg et al., 2005). Ba/F3 cells are stably transfected by electroporation with BCR-ABL point mutants identified in a random mutagenesis screen for BCR-ABL point mutants conferring resistance to nilotinib: Q252H, E292K, Y253C, Y253H, E255K, and V289L (Ray et al., 2007). Ba/F3 cells are made to express Tel-PDGFRβ as described by Golub et al., 1994, and Carroll et al., 1996. Constructs of D842V-PDGFRα and V561D-PDGFRα cDNA cloned into pcDNA3.1 are stably transfected into Ba/F3 cells by electroporation, and cells are selected for neomycin resistance and IL3-independent growth as described by Weisberg et al., 2006.
as §2

[3] = target: T3, EML4-Alk (Homo sapiens, UniProt Q9UM73); experiment: IC50 of compounds against kinase target EML4-Alk (Table I)
T3 construct: EML4 (N-terminal fusion partner); human EML4 would be Q9HC35; the other entry of the earlier key: EML4 (Q9HC35, Echinoderm microtubule-associated protein-like 4)
T3 sequence (Q9UM73 1058-1620 limits assumed): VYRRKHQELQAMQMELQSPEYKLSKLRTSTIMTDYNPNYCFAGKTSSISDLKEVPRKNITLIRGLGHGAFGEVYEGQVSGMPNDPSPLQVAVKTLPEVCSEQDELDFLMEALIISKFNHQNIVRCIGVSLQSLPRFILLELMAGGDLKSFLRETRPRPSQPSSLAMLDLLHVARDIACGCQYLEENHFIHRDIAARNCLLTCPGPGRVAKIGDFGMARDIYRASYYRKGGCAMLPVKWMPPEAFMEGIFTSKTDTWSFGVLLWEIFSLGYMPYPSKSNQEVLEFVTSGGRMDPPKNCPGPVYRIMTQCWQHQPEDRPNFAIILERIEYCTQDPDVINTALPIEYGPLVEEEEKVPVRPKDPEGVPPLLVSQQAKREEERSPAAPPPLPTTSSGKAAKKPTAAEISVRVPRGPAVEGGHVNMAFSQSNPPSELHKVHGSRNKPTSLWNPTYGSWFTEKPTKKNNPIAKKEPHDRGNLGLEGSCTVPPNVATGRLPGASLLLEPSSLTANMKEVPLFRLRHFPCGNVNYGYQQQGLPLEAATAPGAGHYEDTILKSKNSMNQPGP
Method: as §1, §2

[4] = target: T4, Bcr-Abl (Homo sapiens, UniProt P00519); experiment: IC50 of compounds against kinase target Bcr-Abl (Table I)
T4 construct: BCR (N-terminal fusion partner, p210 form, B2A2 junction); expressed in transfected cells; host or cells: Ba/F3.p210 (or 32D.p210) murine hematopoietic cells; the other entry of the earlier key: BCR (P11274, Breakpoint cluster region protein)
Method: as §1, §3, §2

T1 sequence (Q9UM73 1116-1392 limits assumed): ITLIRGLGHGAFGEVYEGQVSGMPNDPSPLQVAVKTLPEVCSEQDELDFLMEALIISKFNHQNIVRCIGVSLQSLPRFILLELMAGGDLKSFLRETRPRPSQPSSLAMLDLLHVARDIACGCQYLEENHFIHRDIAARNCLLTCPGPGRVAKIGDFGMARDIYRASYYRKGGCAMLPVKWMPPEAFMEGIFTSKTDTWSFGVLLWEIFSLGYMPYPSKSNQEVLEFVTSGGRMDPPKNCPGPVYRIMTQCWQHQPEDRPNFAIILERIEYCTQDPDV

## CONC(=O)c1cccc(-c2ccc3c(NC(=O)C4CC4)n[nH]c3c2)c1 [Compound 11]
[1]
  IC50: > 10 µM
[2]
  IC50: > 10 µM
[3]
  IC50: > 10 µM
[4]
  IC50: > 10 µM

## CCN1CCN(Cc2ccc(NC(=O)c3cccc(-c4ccc5c(NC)n[nH]c5c4)c3)cc2C(F)(F)F)CC1 [Compound 2, N-(4-((4-ethylpiperazin-1-yl)methyl)-3-(trifluoromethyl)phenyl)-3-(3-(methylamino)-1H-indazol-6-yl)benzamide]
[1]
  IC50: 4.48 µM
[2]
  IC50: 0.63 µM
[3]
  IC50: 4.19 µM
[4]
  IC50: 0.05 µM

## CNC(=O)c1cccc(-c2ccc3c(NC(=O)C4CC4)n[nH]c3c2)c1 [Compound 12]
[1]
  IC50: 0.72 µM
[2]
  IC50: 2.08 µM
[3]
  IC50: 1.05 µM
[4]
  IC50: 1.9 µM

## CCN1CCN(Cc2ccc(NC(=O)c3cccc(Nc4ccc5c(NC(=O)C6CC6)n[nH]c5c4)c3)cc2C(F)(F)F)CC1 [Compound 24]
[1]
  IC50: 3.75 µM
[2]
  IC50: 3.11 µM
[3]
  IC50: 2.53 µM
[4]
  IC50: 2.38 µM

## O=C(NCCN1CCOCC1)c1cccc(-c2ccc3c(NC(=O)C4CC4)n[nH]c3c2)c1 [Compound 7]
[1]
  IC50: > 10 µM
[2]
  IC50: > 10 µM
[3]
  IC50: > 10 µM
[4]
  IC50: > 10 µM

## Cc1cn(-c2cc(NC(=O)c3cccc(-c4ccc5c(NC(=O)C6CC6)n[nH]c5c4)c3)cc(C(F)(F)F)c2)cn1 [Compound 6]
[1]
  IC50: 2.9 µM
[2]
  IC50: 0.31 µM
[3]
  IC50: 1.34 µM
[4]
  IC50: 3.07 µM

## Cc1ccc(C(=O)Nc2cccc(C(F)(F)F)c2)cc1Nc1ccc2c(NC(=O)C3CC3)n[nH]c2c1 [Compound 25, 3-(3-(cyclopropanecarboxamido)-1H-indazol-6-ylamino)-4-methyl-N-(3-(trifluoro-methyl)phenyl)benzamide]
[1]
  IC50: 7.18 µM
[2]
  IC50: > 10 µM
[3]
  IC50: > 10 µM
[4]
  IC50: 7.18 µM

## CCN1CCN(Cc2ccc(NC(=O)c3cccc(-c4ccc5c(NC(=O)c6ccccc6)n[nH]c5c4)c3)cc2C(F)(F)F)CC1 [Compound 3]
[1]
  IC50: 1.07 µM
[3]
  IC50: 1.67 µM
[4]
  IC50: 0.47 µM

## CCN1CCN(Cc2ccc(C(=O)Nc3cccc(-c4ccc5c(NC(=O)C6CC6)n[nH]c5c4)c3)cc2C(F)(F)F)CC1 [Compound 23]
[1]
  IC50: > 10 µM
[2]
  IC50: > 10 µM
[3]
  IC50: > 10 µM
[4]
  IC50: > 10 µM

## Cc1ccc(C(=O)Nc2cccc(C(F)(F)F)c2)cc1-c1ccc2c(NC(=O)C3CC3)n[nH]c2c1 [Compound 15]
[1]
  IC50: 1.29 µM
[2]
  IC50: > 10 µM
[3]
  IC50: 8.47 µM
[4]
  IC50: 1.19 µM

## CCN1CCN(Cc2ccc(NC(=O)c3cccc(-c4ccc5c(N)n[nH]c5c4)c3)cc2C(F)(F)F)CC1 [Compound 17]
[1]
  IC50: > 10 µM
[2]
  IC50: 7.12 µM
[3]
  IC50: > 10 µM
[4]
  IC50: 0.78 µM

## CCN1CCN(Cc2ccc(NC(=O)c3ccc(C)c(-c4ccc5c(NC(=O)C6CC6)n[nH]c5c4)c3)cc2)CC1 [Compound 14]
[1]
  IC50: 1.44 µM
[2]
  IC50: > 10 µM
[3]
  IC50: 5.6 µM
[4]
  IC50: 1.05 µM

## COc1cc(Nc2ccc3c(NC(=O)C4CC4)n[nH]c3c2)cc(C(=O)Nc2ccc(CN3CCN(C)CC3)c(C(F)(F)F)c2)c1 [Compound 26]
[1]
  IC50: 7.08 µM
[3]
  IC50: > 10 µM
[4]
  IC50: 7.08 µM

## CCN1CCN(Cc2ccc(NC(=O)c3cccc(-c4ccc5c(NC(=O)C6CC6)n[nH]c5c4)c3)cc2C(F)(F)F)CC1 [Compound 19]
[1]
  IC50: 0.03 µM
[2]
  IC50: 0.34 µM
[3]
  IC50: 0.06 µM
[4]
  IC50: 0.65 µM

## CCOC(=O)c1cccc(-c2ccc3c(NC(=O)c4ccc(N5CCN(C)CC5)cc4)n[nH]c3c2)c1 [Compound 27]
[1]
  IC50: 5.26 µM
[2]
  IC50: 1.56 µM
[3]
  IC50: 4.22 µM
[4]
  IC50: 0.07 µM

## O=C(NC1CC1)c1cccc(-c2ccc3c(NC(=O)C4CC4)n[nH]c3c2)c1 [Compound 10]
[1]
  IC50: > 10 µM
[2]
  IC50: > 10 µM
[3]
  IC50: > 10 µM
[4]
  IC50: > 10 µM

## CNc1n[nH]c2cc(-c3cccc(C(=O)Nc4cc(-n5cnc(C)c5)cc(C(F)(F)F)c4)c3)ccc12 [Compound 18]
[1]
  IC50: > 10 µM
[2]
  IC50: 3.08 µM
[3]
  IC50: > 10 µM
[4]
  IC50: 1.57 µM

## CCN1CCN(Cc2ccc(NC(=O)c3ccc(C)c(-c4ccc5c(NC(=O)C6CC6)n[nH]c5c4)c3)cc2C(F)(F)F)CC1 [Compound 13]
[1]
  IC50: 0.31 µM
[2]
  IC50: 0.5 µM
[3]
  IC50: 1.06 µM
[4]
  IC50: 0.03 µM

## O=C(Nc1cccc(C(F)(F)F)c1)c1cccc(-c2ccc3c(NC(=O)C4CC4)n[nH]c3c2)c1 [Compound 1]
[1]
  IC50: > 10 µM
[3]
  IC50: > 10 µM
[4]
  IC50: > 10 µM

## CN1CCN(c2ccc(C(=O)Nc3n[nH]c4cc(-c5cccc(C(=O)Nc6cccc(C(F)(F)F)c6)c5)ccc34)cc2)CC1 [Compound 28, 3-(3-(4-(4-methylpiperazin-1-yl)benzamido)-1H-indazol-6-yl)-N-(3-(trifluoromethyl)phenyl)benzamide]
[1]
  IC50: > 10 µM
[2]
  IC50: > 10 µM
[3]
  IC50: > 10 µM
[4]
  IC50: 1.44 µM

## Cc1cn(-c2cc(NC(=O)c3ccc(C)c(-c4ccc5c(NC(=O)C6CC6)n[nH]c5c4)c3)cc(C(F)(F)F)c2)cn1 [Compound 16]
[1]
  IC50: > 10 µM
[2]
  IC50: > 10 µM
[3]
  IC50: > 10 µM
[4]
  IC50: 0.22 µM

## O=C(Nc1cccc(-c2ccc3c(NC(=O)C4CC4)n[nH]c3c2)c1)C1CC1 [Compound 22]
[1]
  IC50: 0.43 µM
[2]
  IC50: 1.27 µM
[3]
  IC50: 0.5 µM
[4]
  IC50: 0.36 µM

## CCN1CCN(Cc2ccc(NC(=O)c3cccc(-c4ccc5c(NC(=O)C6CC6)n[nH]c5c4)c3)cc2)CC1 [Compound 9]
[1]
  IC50: > 10 µM
[2]
  IC50: > 10 µM
[3]
  IC50: > 10 µM
[4]
  IC50: > 10 µM

## CCN1CCN(Cc2ccc(NC(=O)Nc3cccc(-c4ccc5c(NC(=O)C6CC6)n[nH]c5c4)c3)cc2C(F)(F)F)CC1 [Compound 21]
[1]
  IC50: 0.32 µM
[2]
  IC50: 0.24 µM
[3]
  IC50: 0.36 µM
[4]
  IC50: 0.53 µM

## O=C(Nc1n[nH]c2cc(-c3cccc(C(=O)N4CCC(N5CCCC5)CC4)c3)ccc12)C1CC1 [Compound 8]
[1]
  IC50: > 10 µM
[2]
  IC50: > 10 µM
[3]
  IC50: > 10 µM
[4]
  IC50: > 10 µM

## CCN1CCN(Cc2ccc(C(=O)Nc3cccc(-c4ccc5c(N)n[nH]c5c4)c3)cc2C(F)(F)F)CC1 [Compound 20]
[1]
  IC50: 0.27 µM
[2]
  IC50: 0.31 µM
[3]
  IC50: 0.4 µM
[4]
  IC50: 0.09 µM
